Data as given in patent publication US20030144249A1, “Use of organophosphorous compounds for producing a medicament for treating infections” (priority 2000, published 2003).
Counter-ions that a name gives are not always drawn. Like-named read-outs stand apart in the source and are kept apart here.

Experiments:
Sinapis arvensis [1] = assay: Herbicidal activity, soil, pre-emergence; assay type: in vivo; settings: Mutarda arvensis
Experimental: (§1) Herbicidal activity is determined using standard methods.
(§2) Substances 1 to 8 listed on page 5 are again investigated.

Avena fatua [2] = assay: Herbicidal activity, soil, pre-emergence; assay type: in vivo
Experimental: as §1, §2

Setaria viridis [3] = assay: Herbicidal activity, soil, pre-emergence; assay type: in vivo
Experimental: as §1, §2

Zea mays [4] = assay: Herbicidal activity, soil, pre-emergence; assay type: in vivo
Experimental: as §1, §2

Galium aperine [5] = assay: Herbicidal activity, soil, pre-emergence; assay type: in vivo
Experimental: as §1, §2

Cyperus esculentus [6] = assay: Herbicidal activity, soil, pre-emergence; assay type: in vivo
Experimental: as §1, §2

Abutilon theophrasti [7] = assay: Herbicidal activity, soil, pre-emergence; assay type: in vivo
Experimental: as §1, §2

Beta vulgaris [8] = assay: Herbicidal activity, soil, pre-emergence; assay type: in vivo
Experimental: as §1, §2

Alopecurus myosuroides [9] = assay: Herbicidal activity, soil, pre-emergence; assay type: in vivo
Experimental: as §1, §2

Xanthium strumarium [10] = assay: Herbicidal activity, soil, pre-emergence; assay type: in vivo
Experimental: as §1, §2

Amaranthus retroflexus [11] = assay: Herbicidal activity, soil, pre-emergence; assay type: in vivo
Experimental: as §1, §2

Lepidium = assay: Herbicidal activity, water, pre-emergence; assay type: in vivo
Experimental: as §1, §2

Rice = assay: Herbicidal activity, water, pre-emergence; assay type: in vivo; settings: Oryza sativa
Experimental: as §1, §2

Echinochloa = assay: Herbicidal activity, water, pre-emergence; assay type: in vivo
Experimental: as §1, §2

Solanum = assay: Herbicidal activity, water, pre-emergence; assay type: in vivo
Experimental: as §1, §2

Plasmodium falciparum = assay: Antimalarial activity, in vitro culture, [3H]-hypoxanthine incorporation; assay type: cell-based; settings: 72 h, asynchronous culture, 48 h + 24 h with [3H]-hypoxanthine, read-out: IC50 (nM) of malaria culture (Plasmodium falciparum)
Experimental: The antimalarial activity of substances 1 to 8 (see page 5) was determined using in vitro cultures of the causative organism of malaria, Plasmodium falciparum. 200 μl of an asynchronous Plasmodium falciparum culture with a 0.4% blood parasite content and a heamatocrit of 2% were loaded into each of the wells of a 96 well microtitre plate. A serial dilution series of the compounds was then prepared in steps of three between concentrations of 100 and 0.14 μmol l^−1. The plates were incubated at 37° C., 3% CO2 and 5% O2 over a period of 48 hours. 30 μl of medium supplemented with 27 μCi ml^−1 of [^3H]-hypoxanthine were then added to each well. After 24 hours' incubation, the parasites were harvested by filtration through glass fibre filters and the incorporated radioactivity was measured. Inhibition of parasite growth was measured as the percentage inhibition of tritium incorporation. Inhibition of parasite growth was expressed as the percentage inhibition of tritium incorporation relative to a comparison without the substance. The median inhibitory concentration (IC50) of the substance was determined by extrapolating the values.

[12] = biological target: T1, DOXP reductoisomerase from Helicobacter pylori (Helicobacter pylori, UniProt P56139); assay: DOXP reductoisomerase inhibition (NADPH oxidation at 365 nm); assay type: biochemical
T1 construct: made in house; host or cells: Helicobacter pylori (so in the source)
T1 sequence (P56139 1-368): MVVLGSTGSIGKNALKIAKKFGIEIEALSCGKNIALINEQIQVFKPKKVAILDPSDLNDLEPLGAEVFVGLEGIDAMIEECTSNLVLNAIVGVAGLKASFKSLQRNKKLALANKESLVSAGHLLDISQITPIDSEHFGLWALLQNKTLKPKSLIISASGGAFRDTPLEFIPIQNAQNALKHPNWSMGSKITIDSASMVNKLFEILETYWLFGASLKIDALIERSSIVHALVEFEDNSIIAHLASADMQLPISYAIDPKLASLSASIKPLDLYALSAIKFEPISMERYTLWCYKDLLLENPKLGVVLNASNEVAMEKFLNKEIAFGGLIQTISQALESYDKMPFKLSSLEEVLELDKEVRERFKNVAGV
Experimental: The DOXP reductoisomerase of Helicobacter pylori was expressed as a recombinant protein in Helicobacter pylori. The activity of DOXP reductoisomerase was determined in a batch containing 100 mM tris-HCl (pH=7.5), 1 mM MnCl2, 0.3 mM NADPH and 1 mM DOXP.
The oxidation of NADPH was here measured at 365 nm in a spectrophotometer. The inhibition studies were performed by measuring the activity of DOXP reductoisomerase in the presence of compounds 1 to 8 (see page 5) at various concentrations between 0. 1 and 100 μmol l^−1.

Sinapis arvensis [13] = assay: Herbicidal activity, soil, post-emergence; assay type: in vivo; settings: Mutarda arvensis
Experimental: as §1, §2

Avena fatua [14] = assay: Herbicidal activity, soil, post-emergence; assay type: in vivo
Experimental: as §1, §2

Setaria viridis [15] = assay: Herbicidal activity, soil, post-emergence; assay type: in vivo
Experimental: as §1, §2

Zea mays [16] = assay: Herbicidal activity, soil, post-emergence; assay type: in vivo
Experimental: as §1, §2

Galium aperine [17] = assay: Herbicidal activity, soil, post-emergence; assay type: in vivo
Experimental: as §1, §2

Cyperus esculentus [18] = assay: Herbicidal activity, soil, post-emergence; assay type: in vivo
Experimental: as §1, §2

Abutilon theophrasti [19] = assay: Herbicidal activity, soil, post-emergence; assay type: in vivo
Experimental: as §1, §2

Beta vulgaris [20] = assay: Herbicidal activity, soil, post-emergence; assay type: in vivo
Experimental: as §1, §2

Alopecurus myosuroides [21] = assay: Herbicidal activity, soil, post-emergence; assay type: in vivo
Experimental: as §1, §2

Xanthium strumarium [22] = assay: Herbicidal activity, soil, post-emergence; assay type: in vivo
Experimental: as §1, §2

Amaranthus retroflexus [23] = assay: Herbicidal activity, soil, post-emergence; assay type: in vivo
Experimental: as §1, §2

[24] = Soil, pre-emergence, 500 gram/hectare
[25] = Soil, post-emergence, 500 gram/hectare
[26] = read-out: Herbicidal activity, Sinapis arvensis
[27] = read-out: Herbicidal activity, Avena fatua
[28] = read-out: Herbicidal activity, Setaria viridis
[29] = read-out: Herbicidal activity, Zea mays
[30] = read-out: Herbicidal activity, Galium aperine
[31] = read-out: Herbicidal activity, Cyperus esculentus
[32] = read-out: Herbicidal activity, Abutilon theophrasti
[33] = read-out: Herbicidal activity, Beta vulgaris
[34] = read-out: Herbicidal activity, Alopecurus myosuroides
[35] = read-out: Herbicidal activity, Xanthium strumarium
[36] = read-out: Herbicidal activity, Amaranthus retroflexus

CCCC(=O)N(O)C(C)N(C)CC(O)P(C)(C)=O (stereo not shown) [Compound 1]
80%: plant injury at 500 g/ha (Zea mays [16]; [25])
70%: pest or weed control at 1000 g/ha (Echinochloa; Water, 1000 gram/hectare)
0%: pest or weed control at 500 g/ha (Avena fatua [2]; [24]) | pest or weed control at 500 g/ha (Setaria viridis [3]; [24]) | plant injury at 500 g/ha (Zea mays [4]; [24]) | pest or weed control at 500 g/ha (Galium aperine [5]; [24]) | pest or weed control at 500 g/ha (Cyperus esculentus [6]; [24]) | pest or weed control at 500 g/ha (Abutilon theophrasti [7]; [24]) | pest or weed control at 500 g/ha (Xanthium strumarium [10]; [24]) | pest or weed control at 500 g/ha (Amaranthus retroflexus [11]; [24]) | pest or weed control at 1000 g/ha (Solanum; Water, 1000 gram/hectare) | pest or weed control at 500 g/ha (Cyperus esculentus [18]; [25]) | pest or weed control at 500 g/ha (Amaranthus retroflexus [23]; [25])
60%: pest or weed control at 500 g/ha (Galium aperine [17]; [25]) | pest or weed control at 500 g/ha (Alopecurus myosuroides [21]; [25]) | pest or weed control at 500 g/ha (Xanthium strumarium [22]; [25])
580 nM: IC50 (Plasmodium falciparum)
80 nM: IC50 ([12]; recombinant enzyme, 0.3 mM NADPH, 1 mM DOXP, pH 7.5, read-out: IC50 (nM) of DOXP reductoisomerase from Helicobacter pylori)
40%: pest or weed control at 500 g/ha (Sinapis arvensis [1]; [24]) | pest or weed control at 500 g/ha (Alopecurus myosuroides [9]; [24]) | plant injury at 1000 g/ha (Rice; Water, 1000 gram/hectare) | pest or weed control at 500 g/ha (Abutilon theophrasti [19]; [25])
30%: plant injury at 500 g/ha (Beta vulgaris [8]; [24])
95%: pest or weed control at 500 g/ha (Sinapis arvensis [13]; [25]) | pest or weed control at 500 g/ha (Setaria viridis [15]; [25])
50%: pest or weed control at 1000 g/ha (Lepidium; Water, 1000 gram/hectare) | pest or weed control at 500 g/ha (Avena fatua [14]; [25]) | plant injury at 500 g/ha (Beta vulgaris [20]; [25])

CN(CN(O)C(=O)C1CCCCC1)CP(C)(=O)O [Compound 3, N-((N-Cyclohexanoyl-N-hydroxy)aminomethyl)-N-methyl(aminomethylphosphinic acid, sodium salt]
40%: plant injury at 4000 g/ha (Rice; read-out: Herbicidal activity, Rice)
80%: pest or weed control at 2000 g/ha (Sinapis arvensis [13]; [26])
50%: pest or weed control at 4000 g/ha (Lepidium; read-out: Herbicidal activity, Lepidium) | pest or weed control at 4000 g/ha (Echinochloa; read-out: Herbicidal activity, Echinochloa)
170 nM: IC50 [12]
30%: pest or weed control at 2000 g/ha (Sinapis arvensis [1]; [26]) | plant injury at 2000 g/ha (Beta vulgaris [8]; [33]) | pest or weed control at 2000 g/ha (Alopecurus myosuroides [9]; [34])
0%: pest or weed control at 2000 g/ha (Avena fatua [2]; [27]) | pest or weed control at 2000 g/ha (Setaria viridis [3]; [28]) | plant injury at 2000 g/ha (Zea mays [4]; [29]) | pest or weed control at 2000 g/ha (Galium aperine [5]; [30]) | pest or weed control at 2000 g/ha (Cyperus esculentus [6]; [31]) | pest or weed control at 2000 g/ha (Abutilon theophrasti [7]; [32]) | pest or weed control at 2000 g/ha (Xanthium strumarium [10]; [35]) | pest or weed control at 2000 g/ha (Amaranthus retroflexus [11]; [36]) | pest or weed control at 4000 g/ha (Solanum; read-out: Herbicidal activity, Solanum) | pest or weed control at 2000 g/ha (Cyperus esculentus [18]; [31])
60%: pest or weed control at 2000 g/ha (Galium aperine [17]; [30]) | pest or weed control at 2000 g/ha (Abutilon theophrasti [19]; [32]) | plant injury at 2000 g/ha (Beta vulgaris [20]; [33]) | pest or weed control at 2000 g/ha (Alopecurus myosuroides [21]; [34]) | pest or weed control at 2000 g/ha (Xanthium strumarium [22]; [35]) | pest or weed control at 2000 g/ha (Amaranthus retroflexus [23]; [36])
70%: pest or weed control at 2000 g/ha (Avena fatua [14]; [27]) | pest or weed control at 2000 g/ha (Setaria viridis [15]; [28]) | plant injury at 2000 g/ha (Zea mays [16]; [29])
